{"source": "paper PMC2120305", "about": "(The Journal of Cell Biology, 1994)", "key": {"[1]": {"system": "glycosylation of VSV-g protein", "assay_type": "biochemical, CHO cells"}, "[2]": {"system": "glycosylation of endogenous VSV-g protein", "assay_type": "biochemical, CHO cells"}, "[3]": {"system": "Golgi membranes", "experiment": "Membrane integrity: retention of a preformed UDP-[3H]-GlcNAc gradient", "assay_type": "biochemical, CHO cells", "conditions": "Fig. 5 A; MAS 3.3 µM, ARFp13 43 µM, NEM 1 mM, SDS 50 µM; 10 min with inhibitors"}, "[4]": {"system": "in vitro Golgi transport", "assay_type": "biochemical, CHO cells"}, "[5]": {"system": "beta-COP binding to isolated Golgi membranes", "conditions": "25 µM MAS; cited from earlier work"}, "[6]": {"system": "p200 binding to rat liver Golgi membranes", "conditions": "100 µM MAS; cited from earlier work"}, "[7]": {"system": "release of vesicles from the TGN of PC12 cells", "conditions": "cited from earlier work"}}, "note": "“And” between values parts separate entries of the source, which are not always exact repeats. Equal values may be shown once. Read-outs that look alike come from different tables or passages of the source."}
{"compound": "CCN1C(=O)C=CC1=O", "note": "[NEM]", "values": [{"measurement": "Glycosylation of VSV-g protein after its delivery to the acceptor compartment", "setting": "[1]", "value": "subse- quent glycosylation is inhibited"}, {"measurement": "Effect on glycosylation of VSV-g protein", "setting": "[2]", "value": "similarly inhibitory effect"}, {"measurement": "Integrity of the membranes", "setting": "[3]", "value": "near complete loss of membrane integrity"}]}
{"compound": "CCCCCCCCCCCCOS(=O)(=O)[O-].[Na+]", "note": "[SDS]", "values": [{"measurement": "Effect on glycosylation of VSV-g protein", "setting": "[2]", "value": "similarly inhibitory effect"}, {"measurement": "Integrity of the membranes", "setting": "[3]", "value": "only partially compromised"}]}
{"compound": "Mastoparan", "values": [{"measurement": "IC50 with normal versus ARF-depleted cytosol", "setting": "[4]", "value": "the same"}, {"measurement": "IC50", "setting": "[4]; read-out: IC50 for inhibition of in vitro Golgi transport", "value": 0.75, "unit": "µM"}, {"measurement": "IC50", "setting": "[4]; read-out: IC50 in vitro transport, addition of BFA 0 µM", "value": 2.2, "unit": "µM"}, {"measurement": "IC50", "setting": "[4]; read-out: IC50 in vitro transport, addition of BFA 200 µM", "value": 2, "unit": "µM"}, {"measurement": "IC50", "setting": "[4]; read-out: IC50 in vitro transport, addition of GTP 0 µM", "value": 1.4, "unit": "µM"}, {"measurement": "IC50", "setting": "[4]; read-out: IC50 in vitro transport, addition of GTP 50 µM", "value": 1.3, "unit": "µM"}, {"measurement": "IC50", "setting": "[4]; read-out: IC50 in vitro transport, mock-treated membranes", "value": 1.3, "unit": "µM"}, {"measurement": "IC50", "setting": "[4]; read-out: IC50 in vitro transport, pertussis toxin treated membranes", "value": 1.3, "unit": "µM"}, {"measurement": "Glycosylation of VSV-g protein after its delivery to the acceptor compartment", "setting": "[1]", "value": "subse- quent glycosylation is inhibited"}, {"measurement": "IC50", "setting": "[1]; read-out: IC50, peptide added before glycosylation", "value": "2.8 µM and 1.9 µM"}, {"measurement": "Effect on glycosylation of VSV-g protein", "setting": "[2]", "value": "similarly inhibitory effect"}, {"measurement": "Integrity of the membranes", "setting": "[3]", "value": "near complete loss of membrane integrity"}, {"measurement": "Increase in the amount of beta-COP bound to isolated Golgi membranes", "setting": "[5]", "value": 10, "unit": "fold"}, {"measurement": "Stimulation of p200 binding to rat liver Golgi membranes in vitro", "setting": "[6]", "value": "more than sevenfold"}, {"measurement": "Inhibition of release of vesicles from the TGN", "setting": "[7]", "value": "~30", "unit": "%"}]}
{"compound": "Pertussis toxin", "values": [{"measurement": "Stimulation of TGN vesicle release after pertussis toxin treatment", "setting": "[7]", "value": "1.6- 1.7 fold"}]}
